The source of these data is patent US10590116B2, “3-indolyl furanoids as inhibitors of matrix metalloproteinase-9 for prevention of gastric ulcer and other inflammatory diseases” (Council of Scientific & Industrial Research, priority 2017, dated 2020).

Several values for one entry are separate records, joined by “and”; a condition that tells them apart may be missing. Equal entries are not always repeated.

In one data set the target is T1, MMP-9 (Mus musculus, UniProt P41245).
T1 construct: from tissue; host or cells: mouse stomach (gastric tissue) PBS / Triton X-100 extracts
T1 sequence (P41245 108-730): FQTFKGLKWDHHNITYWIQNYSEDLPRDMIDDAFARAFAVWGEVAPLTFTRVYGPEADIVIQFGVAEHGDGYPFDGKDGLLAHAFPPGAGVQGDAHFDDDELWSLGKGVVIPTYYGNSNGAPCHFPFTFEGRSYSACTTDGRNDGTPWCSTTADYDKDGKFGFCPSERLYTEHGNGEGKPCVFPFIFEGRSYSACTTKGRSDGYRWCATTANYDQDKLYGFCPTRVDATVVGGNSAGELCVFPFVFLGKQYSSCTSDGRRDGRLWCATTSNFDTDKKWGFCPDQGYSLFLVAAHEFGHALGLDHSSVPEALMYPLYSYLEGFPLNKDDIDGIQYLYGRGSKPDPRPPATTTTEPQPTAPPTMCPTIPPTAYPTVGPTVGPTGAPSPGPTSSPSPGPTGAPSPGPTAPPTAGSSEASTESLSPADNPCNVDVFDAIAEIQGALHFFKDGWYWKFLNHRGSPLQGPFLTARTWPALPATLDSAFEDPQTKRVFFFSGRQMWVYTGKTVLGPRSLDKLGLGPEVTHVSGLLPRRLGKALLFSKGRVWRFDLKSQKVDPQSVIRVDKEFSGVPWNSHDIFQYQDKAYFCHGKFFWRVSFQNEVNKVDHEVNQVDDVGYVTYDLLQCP
The experiment in a line: Gelatin zymography of gastric tissue extract, MMP-9. It counts as in vivo, mice. Particulars: pretreatment before indomethacin. The procedure: The whole stomach (including fundic, body and pyloric parts) was washed with saline and used for extraction. Stomach except connective tissue layer (named as gastric tissue) were suspended in 10 mM phosphate buffer saline (PBS) containing protease inhibitors, minced and incubated for 10 min at 4° C. After centrifugation at 12,000 g for 15 min, the supernatant was collected as PBS extracts. The pellet was then extracted in lysis buffer (10 mM Tris-HCl pH 8.0, 150 mM NaCl, 1% Triton X-100 and protease inhibitors) and centrifuged at 12,000 g for 15 min to obtain TX extracts. Both PBS and TX extracts were preserved at −70° C. and used in future studies. Proteins were estimated either by Lowry method or by Bradford assay.
For the analysis of MMP-9 activity, tissue extracts were electrophoresed in 8% SDS-PAGE containing 1 mg/mL gelatin under nonreducing conditions. Equal amounts of tissue extracts (70 μg of total protein) were loaded in all the lanes. […] Quantification of zymographic bands was performed using densitometry linked to proper software (Lab Image, Kapelan Gmbh, Leipzig, Germany). […]
Tissue extracts were electrophoresed in SDS-PAGE containing gelatin under nonreducing conditions. […] Gelatinolytic activity came as negative staining and was quantified by Lab Image software.

The nature of data set [1]: Toxicity studies through repeat daily dosing. It counts as in vivo. The procedure: FIG. 4 gives the In vivo toxicity test. Male and female BALB/c mice (n=10) received indicated doses of compound 5 by daily gavage. Control mice received vehicle (olive oil). Body weights were determined 4 days before the start of the treatment and then throughout the period of treatment until day 25. Data points represent mean body weight.
The purpose of this study was to assess the efficacy of prolonged oral compound 5 treatment and ascertaining adverse impact, if any. […] The female mice were, on an average, 4 g lighter than male mice which is consistent with the common sex-specific weight difference.

In data set [2] the test system is apoptosis of gastric mucosa. The experiment in a line: TUNEL assay of gastric tissue sections. In kind it is in vivo. Particulars: indomethacin ulcerated mice. The text has this:
To understand the fine information about the physical condition (the level of damage and/or intactness) of cells tissues under observation, different tissue samples were fixed in 10% formalin and embedded in paraffin. Tissue sections were deparaffinized with xylene and rehydrated with descending alcohol series. The sections were cut using microtome, and stained with hematoxylin and eosin, or subjected to Terminal deoxynucleotidyl transferase-mediated dUTP Nick End Labeling (TUNEL) assay by using a in situ apoptosis detection kit. Fixation, permeabilization, and staining were carried out in exact parallel to ensure comparative significance among normal, ulcerated and compound 5 treated groups. […] Images at 10× and 40× magnification were captured using Camedia software (E-20P 5.0 Megapixel) and processed under Adobe Photoshop version 7.0 (FIG. 1B).
Tissue sections were stained with hematoxylin and eosin stain. Fixation, permeabilization, and staining were carried out in parallel in normal, ulcerated and compound 5 treated groups to ensure comparative significance among different treatment. TUNEL assay is used for detection and quantification of apoptosis in gastric tissues, based on labelling of DNA strand breaks. Terminal deoxynucleotidyl transferase-mediated dUTP Nick End Labeling (TUNEL) assay was performed by using an in situ apoptosis detection kit. […]

A further data set relates to Myeloperoxidase (MPO). The data set is described as follows: Myeloperoxidase assay in gastric tissue. Particulars: ulcerated mice, gastric tissue homogenate. It counts as in vivo. The method, then:
To understand the anti-inflammatory activity of compound 5, the inventors performed Myeloperoxidase (MPO) Assay in mouse of control, diseased and treated. Myeloperoxidase (MPO) activity in the mice gastric tissues was measured by calorimetric assay using guaiacol as the substrate. Briefly, gastric tissue homogenate prepared in 5 mM phosphate buffer was added to 1 mL of reaction buffer containing 0.5 mM H2O2 and 0.4 M guaiacol in 50 mM phosphate buffer, pH 7.4. The changes in the optical density per minute for tetraguaiacol were measured at 470 nm in a Shimadzu spectrophotometer. The results were expressed in units/gram gastric tissue (ε=26.6/mM/cm).
Myeloperoxidase (MPO) activity in the mouse gastric tissue homogenate was assayed colorimetrically using guaiacol and H2O2.

The target of the next data set is T2, purified MMP-9 (Homo sapiens, UniProt P14780).
T2 construct: from tissue; host or cells: bronchoalveolar lavage fluid of IPF patients
T2 sequence (P14780 94-707): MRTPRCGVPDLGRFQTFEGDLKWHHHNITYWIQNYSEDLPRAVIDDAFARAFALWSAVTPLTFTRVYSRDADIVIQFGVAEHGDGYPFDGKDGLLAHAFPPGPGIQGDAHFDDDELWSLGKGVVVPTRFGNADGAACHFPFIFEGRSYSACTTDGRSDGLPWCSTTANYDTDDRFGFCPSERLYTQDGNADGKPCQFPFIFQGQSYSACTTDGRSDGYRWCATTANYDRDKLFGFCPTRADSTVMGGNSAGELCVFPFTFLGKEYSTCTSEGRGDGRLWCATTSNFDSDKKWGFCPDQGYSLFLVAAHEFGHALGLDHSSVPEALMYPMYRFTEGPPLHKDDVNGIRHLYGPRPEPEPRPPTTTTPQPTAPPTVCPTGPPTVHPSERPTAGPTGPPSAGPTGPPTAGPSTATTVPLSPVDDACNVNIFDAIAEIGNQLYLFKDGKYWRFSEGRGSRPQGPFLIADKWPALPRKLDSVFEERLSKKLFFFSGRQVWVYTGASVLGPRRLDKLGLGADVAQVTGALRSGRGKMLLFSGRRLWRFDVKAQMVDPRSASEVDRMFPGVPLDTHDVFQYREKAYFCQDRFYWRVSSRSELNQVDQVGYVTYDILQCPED
The data set is described as follows: IC50 on purified MMP-9 using gelatin zymography. In kind it is biochemical, human (IPF patients). Particulars: purified MMP-9, gelatin zymography, three independent experiments. The procedure:
MMP-9 was purified from the bronchoalveolar lavage fluid (BALF) of idiopathic pulmonary fibrosis (IPF) patients as these fluids contain enormous amounts of MMP-9. All purification procedures were carried out at 4° C. Briefly, BALF containing protease inhibitor cocktail (EDTA Free) were centrifuged at 12,000 g for 15 min, and the supernatant was collected and processed for protein purification. […] The enzyme was eluted with 7% dimethyl sulfoxide diluted in the same buffer, and the fractions containing enzyme protein as determined by absorbance at 280 nm were pooled and immediately dialyzed against equilibrating buffer at 4° C. They were then concentrated using Amicon Ultra-15 centrifugal filter devices and protein concentration was determined by Bradford assay. These samples were screened to confirm the presence of MMP-9 and absence of MMP-2 by gelatin zymography and stored at −70° C.
The inventors address the IC50 value of compound 5 towards MMP-9 binding. To evaluate the IC50 value of compound 5 on MMP-9 activity, equal amount of purified MMP-9 was incubated with various concentrations of compound 5 followed by electrophoresis in 8% SDS-PAGE containing 1 mg/mL gelatin under nonreducing conditions.

Where [3] appears, read: 150 or 300 mg/kg body weight/day for 25 days, daily gavage.

By IC50 is commonly meant the midpoint of a concentration-inhibition curve. Low readings indicate inhibition by little substance, high ones a need for much substance. For `COc1cccc2[nH]cc(-c3cc(-c4ccccc4)oc3-c3ccccc3)c12` [compound 5, 4-methoxy-3-(2,5-diphenylfuran-3-yl)-1H-indole], the entries for the “MMP-9 activity in gastric tissue extract” value on MMP-9 and at MMP-9 (listed as Compound 5) were “inhibits MMP-9 activity in gastric mucosa” and “inhibited MMP-9 activity very significantly”, respectively. Further, in data set [1] (setting [3]), the “body weight, treated versus control groups” value is “no differences in body weight”. The “clinical signs of toxicity (lethargy, abdominal distension, fur loss, hunching)” value in data set [1] (setting [3]) is recorded as “no clinical signs of toxicity”. In addition, in data set [1] (mouse, in vivo), the “toxicity, general statement” value was “non-toxic”. The “apoptosis of gastric mucosa (TUNEL)” value in data set [2] is reported as “suppression of apoptosis”. Further, the Myeloperoxidase is given as 9.13±0.33 units/gram tissue in the data set on Myeloperoxidase (MPO) and 9.13 ± 0.33 units/gram tissue in the data set on Myeloperoxidase (MPO) (listed as Compound 5). Besides, the IC50 at purified MMP-9 is ~50 µM and 50 µM.
